Assay results reported in PubChem BioAssay AID2060484 (Molecular Pharmacology Branch, DTP, NCI, 2025).
pIC50: −log10 of the molar value.

Test system: SUM149PT spheroids with HUVEC/MSC, viability
Assay: Anticancer human tumor SUM149PT cell line growth inhibition [GQUAD];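 note: spheroids exposed to drugs for seven days before readout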;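 for viability, T/C: percent viability relative to DMSO vehicle control taken as 100%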
Conditions: for pIC50: curve of first compound; for viability, T/C: stronger effect = lower value
Procedure, shortened: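 Tumor cells were grown as complex spheroids with HUVEC endothelial cells and mesenchymal stem cells as stroma. G-quadruplex stabilizers were combined with targeted agents over half-log dilutions from near the clinical Cmax, or from 10 microM.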

[1] = second compound 0.0316 µM, first compound 0.0316 µM
[2] = second compound 0.0316 µM, first compound 0.1 µM
[3] = second compound 0.0316 µM, first compound 0.316 µM
[4] = second compound 0.0316 µM, first compound 1 µM
[5] = second compound 0.0316 µM, first compound 3.16 µM
[6] = second compound 0.0316 µM, first compound 10 µM
[7] = second compound 0.1 µM, first compound 0.0316 µM
[8] = second compound 0.1 µM, first compound 0.1 µM
[9] = second compound 0.1 µM, first compound 0.316 µM
[10] = second compound 0.1 µM, first compound 1 µM
[11] = second compound 0.1 µM, first compound 3.16 µM
[12] = second compound 0.1 µM, first compound 10 µM
[13] = second compound 0.316 µM, first compound 0.0316 µM
[14] = second compound 0.316 µM, first compound 0.1 µM
[15] = second compound 0.316 µM, first compound 0.316 µM
[16] = second compound 0.316 µM, first compound 1 µM
[17] = second compound 0.316 µM, first compound 3.16 µM
[18] = second compound 0.316 µM, first compound 10 µM
[19] = second compound 1 µM, first compound 0.0316 µM
[20] = second compound 1 µM, first compound 0.1 µM
[21] = second compound 1 µM, first compound 0.316 µM
[22] = second compound 1 µM, first compound 1 µM
[23] = second compound 1 µM, first compound 3.16 µM
[24] = second compound 1 µM, first compound 10 µM
[25] = second compound 3.16 µM, first compound 0.0316 µM
[26] = second compound 3.16 µM, first compound 0.1 µM
[27] = second compound 3.16 µM, first compound 0.316 µM
[28] = second compound 3.16 µM, first compound 1 µM
[29] = second compound 3.16 µM, first compound 3.16 µM
[30] = second compound 3.16 µM, first compound 10 µM
[31] = second compound 10 µM, first compound 0.0316 µM
[32] = second compound 10 µM, first compound 0.1 µM
[33] = second compound 10 µM, first compound 0.316 µM
[34] = second compound 10 µM, first compound 1 µM
[35] = second compound 10 µM, first compound 3.16 µM
[36] = second compound 10 µM, first compound 10 µM

## CC(C)n1c(=O)n(C)c2cnc3cc(F)c(-c4ccc(OCCCN5CCCCC5)nc4)cc3c21 + CN(C)c1ccc(Nc2c3ccc(NC(=O)CCN4CCCC4)cc3nc3cc(NC(=O)CCN4CCCC4)ccc23)cc1
Second compound 0.0316 µM
  pIC50: < 5.00
Second compound 0.1 µM
  pIC50: < 5.00
Second compound 0.316 µM
  pIC50: < 5.00
Second compound 1 µM
  pIC50: < 5.00
Second compound 3.16 µM
  pIC50: 5.05
Second compound 10 µM
  pIC50: 5.93
[1]
  viability, T/C: 101%
[2]
  viability, T/C: 88.5%
[3]
  viability, T/C: 95%
[4]
  viability, T/C: 99.9%
[5]
  viability, T/C: 95.8%
[6]
  viability, T/C: 68.2%
[7]
  viability, T/C: 98.6%
[8]
  viability, T/C: 90.2%
[9]
  viability, T/C: 96.3%
[10]
  viability, T/C: 95.7%
[11]
  viability, T/C: 96.5%
[12]
  viability, T/C: 64.2%
[13]
  viability, T/C: 94%
[14]
  viability, T/C: 79.4%
[15]
  viability, T/C: 86.6%
[16]
  viability, T/C: 95.8%
[17]
  viability, T/C: 93%
[18]
  viability, T/C: 61.5%
[19]
  viability, T/C: 74.8%
[20]
  viability, T/C: 83.4%
[21]
  viability, T/C: 87.4%
[22]
  viability, T/C: 89.7%
[23]
  viability, T/C: 81.2%
[24]
  viability, T/C: 57%
[25]
  viability, T/C: 84.7%
[26]
  viability, T/C: 80.9%
[27]
  viability, T/C: 73%
[28]
  viability, T/C: 72.2%
[29]
  viability, T/C: 70.7%
[30]
  viability, T/C: 46.6%
[31]
  viability, T/C: 75.3%
[32]
  viability, T/C: 71.6%
[33]
  viability, T/C: 61.9%
[34]
  viability, T/C: 52.1%
[35]
  viability, T/C: 38.8%
[36]
  viability, T/C: 24.8%

## CC1COCCN1c1cc(C2(O)CC3CCC(C2)O3)c2cnn(-c3ccn[nH]3)c2n1 (stereo not drawn) + CN(C)c1ccc(Nc2c3ccc(NC(=O)CCN4CCCC4)cc3nc3cc(NC(=O)CCN4CCCC4)ccc23)cc1
Second compound 0.0316 µM
  pIC50: 7.08
Second compound 0.1 µM
  pIC50: 7.07
Second compound 0.316 µM
  pIC50: 7.13
Second compound 1 µM
  pIC50: 7.19
Second compound 3.16 µM
  pIC50: 7.25
Second compound 10 µM
  pIC50: 7.22
[1]
  viability, T/C: 84.2%
[2]
  viability, T/C: 43.3%
[3]
  viability, T/C: 27%
[4]
  viability, T/C: 25.3%
[5]
  viability, T/C: 31.2%
[6]
  viability, T/C: 20%
[7]
  viability, T/C: 77.4%
[8]
  viability, T/C: 45%
[9]
  viability, T/C: 31.4%
[10]
  viability, T/C: 25.1%
[11]
  viability, T/C: 27.5%
[12]
  viability, T/C: 18.4%
[13]
  viability, T/C: 68.8%
[14]
  viability, T/C: 42.7%
[15]
  viability, T/C: 30.8%
[16]
  viability, T/C: 27.8%
[17]
  viability, T/C: 24.2%
[18]
  viability, T/C: 19.6%
[19]
  viability, T/C: 68.2%
[20]
  viability, T/C: 39.5%
[21]
  viability, T/C: 23.4%
[22]
  viability, T/C: 26.6%
[23]
  viability, T/C: 21.5%
[24]
  viability, T/C: 19.5%
[25]
  viability, T/C: 62.3%
[26]
  viability, T/C: 38.5%
[27]
  viability, T/C: 24.3%
[28]
  viability, T/C: 22.6%
[29]
  viability, T/C: 22.6%
[30]
  viability, T/C: 15.6%
[31]
  viability, T/C: 65.8%
[32]
  viability, T/C: 37.6%
[33]
  viability, T/C: 23.5%
[34]
  viability, T/C: 22.9%
[35]
  viability, T/C: 20.1%
[36]
  viability, T/C: 15.7%

## Cc1cccc(N(C)C(=O)C2C(O)CCN2c2nc(C)cc(C(F)(F)F)c2C#N)c1 (stereo not drawn) + CN(C)c1ccc(Nc2c3ccc(NC(=O)CCN4CCCC4)cc3nc3cc(NC(=O)CCN4CCCC4)ccc23)cc1
Second compound 0.0316 µM
  pIC50: < 5.00
Second compound 0.1 µM
  pIC50: < 5.00
Second compound 0.316 µM
  pIC50: < 5.00
Second compound 1 µM
  pIC50: < 5.00
Second compound 3.16 µM
  pIC50: < 5.00
Second compound 10 µM
  pIC50: 5.40
[1]
  viability, T/C: 97.4%
[2]
  viability, T/C: 103%
[3]
  viability, T/C: 104%
[4]
  viability, T/C: 103%
[5]
  viability, T/C: 107%
[6]
  viability, T/C: 110%
[7]
  viability, T/C: 108%
[8]
  viability, T/C: 95.3%
[9]
  viability, T/C: 91.5%
[10]
  viability, T/C: 100%
[11]
  viability, T/C: 98.7%
[12]
  viability, T/C: 103%
[13]
  viability, T/C: 92.7%
[14]
  viability, T/C: 93.7%
[15]
  viability, T/C: 88.7%
[16]
  viability, T/C: 101%
[17]
  viability, T/C: 94%
[18]
  viability, T/C: 90.6%
[19]
  viability, T/C: 85.8%
[20]
  viability, T/C: 85.2%
[21]
  viability, T/C: 76.2%
[22]
  viability, T/C: 87.9%
[23]
  viability, T/C: 84.9%
[24]
  viability, T/C: 81.5%
[25]
  viability, T/C: 99.2%
[26]
  viability, T/C: 71%
[27]
  viability, T/C: 77.2%
[28]
  viability, T/C: 77.1%
[29]
  viability, T/C: 91.2%
[30]
  viability, T/C: 68%
[31]
  viability, T/C: 82.1%
[32]
  viability, T/C: 82.3%
[33]
  viability, T/C: 74.3%
[34]
  viability, T/C: 76%
[35]
  viability, T/C: 53%
[36]
  viability, T/C: 37.9%

## Cn1ncnc1[C@H]1c2n[nH]c(=O)c3cc(F)cc(c23)N[C@@H]1c1ccc(F)cc1 + CN(C)c1ccc(Nc2c3ccc(NC(=O)CCN4CCCC4)cc3nc3cc(NC(=O)CCN4CCCC4)ccc23)cc1
Second compound 0.0316 µM
  pIC50: < 6.50
Second compound 0.1 µM
  pIC50: < 6.50
Second compound 0.316 µM
  pIC50: < 6.50
Second compound 1 µM
  pIC50: < 6.50
Second compound 3.16 µM
  pIC50: < 6.50
Second compound 10 µM
  pIC50: < 6.50
Second compound 0.0316 µM, first compound 0.000999 µM
  viability, T/C: 110%
Second compound 0.0316 µM, first compound 0.00316 µM
  viability, T/C: 91.4%
Second compound 0.0316 µM, first compound 0.00999 µM
  viability, T/C: 94.5%
[1]
  viability, T/C: 92.1%
Second compound 0.0316 µM, first compound 0.0999 µM
  viability, T/C: 91.9%
[3]
  viability, T/C: 69.4%
Second compound 0.1 µM, first compound 0.000999 µM
  viability, T/C: 95%
Second compound 0.1 µM, first compound 0.00316 µM
  viability, T/C: 99.5%
Second compound 0.1 µM, first compound 0.00999 µM
  viability, T/C: 91.5%
[7]
  viability, T/C: 89.5%
Second compound 0.1 µM, first compound 0.0999 µM
  viability, T/C: 92.4%
[9]
  viability, T/C: 66.6%
Second compound 0.316 µM, first compound 0.000999 µM
  viability, T/C: 96%
Second compound 0.316 µM, first compound 0.00316 µM
  viability, T/C: 83.4%
Second compound 0.316 µM, first compound 0.00999 µM
  viability, T/C: 98.1%
[13]
  viability, T/C: 78.2%
Second compound 0.316 µM, first compound 0.0999 µM
  viability, T/C: 81.1%
[15]
  viability, T/C: 64.9%
Second compound 1 µM, first compound 0.000999 µM
  viability, T/C: 87.6%
Second compound 1 µM, first compound 0.00316 µM
  viability, T/C: 88.1%
Second compound 1 µM, first compound 0.00999 µM
  viability, T/C: 77%
[19]
  viability, T/C: 81.5%
Second compound 1 µM, first compound 0.0999 µM
  viability, T/C: 81.2%
[21]
  viability, T/C: 56.7%
Second compound 3.16 µM, first compound 0.000999 µM
  viability, T/C: 79.3%
Second compound 3.16 µM, first compound 0.00316 µM
  viability, T/C: 89%
Second compound 3.16 µM, first compound 0.00999 µM
  viability, T/C: 80.3%
[25]
  viability, T/C: 80.8%
Second compound 3.16 µM, first compound 0.0999 µM
  viability, T/C: 73.8%
[27]
  viability, T/C: 56%
Second compound 10 µM, first compound 0.000999 µM
  viability, T/C: 88.9%
Second compound 10 µM, first compound 0.00316 µM
  viability, T/C: 79%
Second compound 10 µM, first compound 0.00999 µM
  viability, T/C: 72.2%
[31]
  viability, T/C: 83.5%
Second compound 10 µM, first compound 0.0999 µM
  viability, T/C: 74.2%
[33]
  viability, T/C: 52.3%
